Laboratory results: publication PMC10298530, “Synthesis and Anticancer Activity of A-Ring-Modified Derivatives of Dihydrobetulin” (International Journal of Molecular Sciences, 2023)
Values joined by “and” are separate entries in the source; they are usually repeats but may differ in a detail not shown here. Identical values can stand only once. Like-named read-outs stand apart in the source and are kept apart here.

What was measured:
Assay type in all cases: cell-based, human
HBL-100/Dox cells [1] = test: Annexin V-FITC/PI assay, HBL-100/Dox; conditions: 16 h
Protocol: (§1) Briefly, after exposing the cells to the tested and control compounds for 16 h, the cells were detached with accutase (HiMedia Laboratories, Maharashtra, India) and washed with cold PBS. Then, the cells were re-suspended in 100 μL of 1 × Binding Buffer at concentration 1 × 10^6 cells/mL and incubated with 5 μL Annexin V-FITC and 5 μL propidium iodide (PI) for 15 min at room temperature in darkness. After incubation, 400 μL of 1 × Binding Buffer was added to each tube. The samples were analyzed by flow cytometry (CytoFlex S, Beckman Coulter, Brea, CA, USA) within 1 h of staining, and the findings were analyzed using a trial version of the Kaluza software (Beckman Coulter, Brea, CA, USA).

HBL-100 cells [2] = test: Annexin V-FITC/PI assay, HBL-100; conditions: 16 h
Protocol: as §1

MS = test: MTT cell viability assay, MS; conditions: for IC50: Homo sapiens;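 for IC50 (mean ± SD): MS is a melanocyte cell line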
From the text: (§2) Blokhin National Medical Research Center of Oncology (the Ministry of Health of the Russian Federation, Moscow).

HBL-100 cells [3] = test: Western blotting of cytochrome c, cleaved caspase-9 and -8, HBL-100; conditions: 16 h, IC50
Protocol: The supernatant (cytosol fraction) and mitochondrial pellets were then collected, and protein concentration was determined by UV […] using 1–100 μg/mL BSA as standard curve concentrations (UV-2600i spectrophotometer; Shimadzu, Tokyo, Japan).
Then, the same protein amounts (20.0 µg in each lane) were loaded and separated by 4–20% Mini-PROTEAN TGX Stain-Free Protein Gels (Bio-Rad Laboratories, Hercules, CA, USA), followed by transferring onto polyvinylidene difluoride (PVDF) membranes. The membranes were blocked with 1% (w/v) casein in Tris-buffered saline containing 0.1% Tween-20 (TBS-T), and were incubated overnight with primary antibodies (1:1000) of Cytochrome c (D18C7) Rabbit mAb, Cleaved Caspase-9 (Asp330) (E5Z7N) Rabbit mAb, Cleaved Caspase-8 (Asp374) (18C8) Rabbit mAb, and β-Actin (D6A8) Rabbit mAb (Cell Signaling Technology, Danvers, MA, USA) for cytosol and mitohondrial fractions at 4 °C. The next day, the PVDF membranes were washed thrice in TBS-T and incubated with HRP-conjugated secondary antibodies (1:1000) (Cell Signaling Technology, Danvers, MA, USA) for 1 h at RT. Immunoreactive proteins were detected by Clarity Western ECL Substrate (Bio-Rad Laboratories, Hercules, CA, USA) and then analyzed on the ChemiDoc MP Imaging system (Bio-Rad Laboratories, Hercules, CA, USA). The proteins were quantified by densitometry using Image Lab software (version 6.0; Bio-Rad Laboratories, Hercules, CA, USA). To normalize protein expression data, a blot with β-Actin was used.

PC-3 = test: MTT cell viability assay, PC-3; conditions: for IC50: Homo sapiens
From the text: as §2

HBL-100/Dox cells [4] = test: Cell cycle analysis (DAPI, flow cytometry), HBL-100/Dox; conditions: for Cell cycle of HBL-100/Dox, G0/G1 / Cell cycle of HBL-100/Dox, G2/M / Cell cycle of HBL-100/Dox, subG0/G1 / Cell cycle of HBL-100/Dox, S-phase: dose = IC50
Protocol: The cells were trypsinized and rinsed with the growth medium. Then, the cells were harvested by centrifugation at 500× g for 3 min, and the supernatant was discarded. The cells were washed with PBS (PanEco, Moscow, Russia) twice and centrifuged under similar conditions. The cells were resuspended in 500 μL of PBS, put into centrifuge tubes and fixed by adding 4.5 mL of 70% ethanol dropwise (on ice). The samples were fixed at 4 °C. Overnight, the fixed cells were centrifugally collected (1000× g, 4 °C, 5 min) and washed again with PBS. The cells were finally resuspended in DAPI with 0.1% Triton X-100 in PBS solution (10 μg/mL, Sigma–Aldrich, St. Louis, MO, USA), and stained for 30 min at room temperature in darkness. For each sample, at least 50,000 cells were analyzed using the CytoFlex S flow cytometer (Beckman Coulter, Brea, CA, USA). Cell cycle populations were quantified from DNA histograms with the FlowJo software (ver. X 10.0.7r2, FlowJo Software, San Jose, CA, USA).

Work on `COC(=O)[C@]12CC[C@@H](C(C)C)[C@@H]1[C@H]1CC[C@@H]3[C@@](C)(CCC#N)[C@H](C(=O)C(Br)Br)CC[C@@]3(C)[C@]1(C)CC2` [compound 31, 2-Cyano-24,24-dibromo-4-oxo-3,4-seco-3,23-dinorlupan-28-oic acid methyl ester] yielded a Dead cells (HBL-100/Dox cells [1]; dose 2xIC50) of 4.59±0.45%, a Viable cells (HBL-100/Dox cells [1]; dose 2xIC50) of 78.69 ± 1.29% and an Early apoptotic cells (HBL-100/Dox cells [1]; dose 2xIC50, listed as MK) of 5.50±0.44%. The Late apoptotic cells (HBL-100/Dox cells [1]; dose 2xIC50, listed as MK) was 10.94 ± 0.81% and 10.94±0.82%, the Dead cells (HBL-100/Dox cells [1]; dose IC50) was 2.52±0.08% and the Viable cells (HBL-100/Dox cells [1]; dose IC50) was 87.82 ± 0.44%. The Early apoptotic cells (HBL-100/Dox cells [1]; dose IC50, listed as MK) was 5.04 ± 0.51% and 5.04±0.52%, the Late apoptotic cells (HBL-100/Dox cells [1]; dose IC50, listed as MK) was 4.74 ± 0.44% and 4.74±0.04% and the Dead cells (HBL-100 cells [2]; dose 2xIC50) was 5.59±0.46%. The Late apoptotic cells (HBL-100 cells [2]; dose 2xIC50) was 10.37 ± 1.01%, the Viable cells (HBL-100 cells [2]; dose 2xIC50) was 76.73 ± 1.18% and the Early apoptotic cells (HBL-100 cells [2]; dose 2xIC50, listed as MK) was 7.29 ± 0.28% and 7.29±0.29%. The Dead cells (HBL-100 cells [2]; dose IC50) was 2.69±0.13%, the Late apoptotic cells (HBL-100 cells [2]; dose IC50) was 3.59 ± 0.82% and the Early apoptotic cells (HBL-100 cells [2]; dose IC50, listed as MK) was 4.43±0.49%. For the same compound, the Viable cells (HBL-100 cells [2]; dose IC50, listed as MK) was 89.57 ± 0.93% and 89.58±0.94%, the IC50 (MS; MS, MTT, 72 h of treatment, read-out: IC50 Values (Mean ± SD)) was 16.5 ± 1.5 µM and the IC50 (MS; Table S1, MS, read-out: IC50 (mean ± SD)) was 16.5 ± 1.53 µM. The “Selectivity index (SI)” value (MS; ratio of IC50 values healthy (HEK293) / MS) was 0.70, the “activation of caspase-8” value (HBL-100 cells [3]) was “not observed” and the “activation of caspase-9” value (HBL-100 cells [3]) was “sequential activation of initiator caspase-9”. For the same compound, the “cytochrome c release” value (HBL-100 cells [3]) was “provoked the release of cytochrome c from mitochondria to cytosol”, the IC50 (PC-3; PC-3, MTT, 72 h of treatment, read-out: IC50 Values (Mean ± SD)) was 10.4 ± 1.3 µM and the IC50 (PC-3; Table S1, PC-3, read-out: IC50 (mean ± SD)) was 10.3 ± 1.27 µM. The “Selectivity index (SI)” value (PC-3; ratio of IC50 values healthy (HEK293) / PC-3) was 1.11, the “Cell cycle of HBL-100/Dox, G0/G1” value (HBL-100/Dox cells [4]; 12 h) was 50.93±0.43% and the “Cell cycle of HBL-100/Dox, G2/M” value (HBL-100/Dox cells [4]; 12 h) was 18.38±0.34%. The “Cell cycle of HBL-100/Dox, subG0/G1” value (HBL-100/Dox cells [4]; 12 h) was 4.84 ± 1.48%, the “Cell cycle of HBL-100/Dox, S-phase” value (HBL-100/Dox cells [4]; 12 h, listed as MK) was 30.69 ± 0.99% and 30.69±0.04% and the “Cell cycle of HBL-100/Dox, G0/G1” value (HBL-100/Dox cells [4]; 13 h) was 47.82±0.67%. For the same compound, the “Cell cycle of HBL-100/Dox, G2/M” value (HBL-100/Dox cells [4]; 13 h) was 17.42±0.46%, the “Cell cycle of HBL-100/Dox, S-phase” value (HBL-100/Dox cells [4]; 13 h) was 34.76±0.20% and the “Cell cycle of HBL-100/Dox, subG0/G1” value (HBL-100/Dox cells [4]; 13 h) was 4.89±0.48%. For the same compound, the “Cell cycle of HBL-100/Dox, G0/G1” value (HBL-100/Dox cells [4]; 14 h) was 51.68±1.34%, the “Cell cycle of HBL-100/Dox, G2/M” value (HBL-100/Dox cells [4]; 14 h) was 14.54±0.25% and the “Cell cycle of HBL-100/Dox, S-phase” value (HBL-100/Dox cells [4]; 14 h) was 33.78±1.08%. The “Cell cycle of HBL-100/Dox, subG0/G1” value (HBL-100/Dox cells [4]; 14 h) was 4.87±0.60%, the “Cell cycle of HBL-100/Dox, G0/G1” value (HBL-100/Dox cells [4]; 15 h) was 52.12±1.18% and the “Cell cycle of HBL-100/Dox, G2/M” value (HBL-100/Dox cells [4]; 15 h) was 14.52±1.40%. The “Cell cycle of HBL-100/Dox, S-phase” value (HBL-100/Dox cells [4]; 15 h) was 33.36±2.57%, the “Cell cycle of HBL-100/Dox, subG0/G1” value (HBL-100/Dox cells [4]; 15 h) was 5.06±0.09% and the “Cell cycle of HBL-100/Dox, G0/G1” value (HBL-100/Dox cells [4]; 16 h) was 51.84±0.88%. For the same compound, the “Cell cycle of HBL-100/Dox, G2/M” value (HBL-100/Dox cells [4]; 16 h) was 22.22±1.70%, the “Cell cycle of HBL-100/Dox, S-phase” value (HBL-100/Dox cells [4]; 16 h) was 25.94±2.58% and the “Cell cycle of HBL-100/Dox, subG0/G1” value (HBL-100/Dox cells [4]; 16 h) was 6.55±0.11%. For the same compound, the “Cell cycle of HBL-100/Dox, G0/G1” value (HBL-100/Dox cells [4]; 17 h) was 52.16 ± 1.94%, the “Cell cycle of HBL-100/Dox, G2/M” value (HBL-100/Dox cells [4]; 17 h) was 19.82±0.60% and the “Cell cycle of HBL-100/Dox, S-phase” value (HBL-100/Dox cells [4]; 17 h) was 28.02±1.34%. The “Cell cycle of HBL-100/Dox, subG0/G1” value (HBL-100/Dox cells [4]; 17 h) was 9.08±0.39%, the “Cell cycle of HBL-100/Dox, G0/G1” value (HBL-100/Dox cells [4]; 18 h) was 57.26±1.18% and the “Cell cycle of HBL-100/Dox, G2/M” value (HBL-100/Dox cells [4]; 18 h) was 25.55±1.12%. For the same compound, the “Cell cycle of HBL-100/Dox, S-phase” value (HBL-100/Dox cells [4]; 18 h) was 17.19±2.31%, the “Cell cycle of HBL-100/Dox, subG0/G1” value (HBL-100/Dox cells [4]; 18 h) was 10.42±0.98% and the “Cell cycle of HBL-100/Dox, G0/G1” value (HBL-100/Dox cells [4]; 24 h) was 64.14 ± 0.55%. The “Cell cycle of HBL-100/Dox, S-phase” value (HBL-100/Dox cells [4]; 24 h) was 8.99 ± 0.42%, the “Cell cycle of HBL-100/Dox, G2/M” value (HBL-100/Dox cells [4]; 24 h, listed as MK) was 26.87 ± 1.13% and 26.87±0.13% and the “Cell cycle of HBL-100/Dox, subG0/G1” value (HBL-100/Dox cells [4]; 24 h, listed as MK) was 13.47 ± 2.44% and 13.47±0.18%. For the same compound, the “effect on cell cycle progression” value (HBL-100/Dox cells [4]; HBL-100/Dox (resistant) cells, 12-24 h, IC50) was “blocked or slowed down the cell cycle progression through the G0/G1 phase”.
